The values below are quoted from earlier work in PubChem BioAssay AID1259409 (Chemical Carcinogenesis Research Information System (CCRIS), 2018).

This data set deals with rodent chemically induced tumor inhibition, incidence and multiplicity. Nature of the data set: CCRIS tumor inhibitor studies. As to conditions: Dose [Inhibitor]: 0. From the text:
The CCRIS database contains chemical records with carcinogenicity, mutagenicity, tumor promotion, and tumor inhibition test results. It was developed by the National Cancer Institute (NCI). Data are derived from studies cited in primary journals, current awareness tools, NCI reports, and other sources. Test results have been reviewed by experts in carcinogenesis and mutagenesis.
CCRIS provides historical information from the years 1985 - 2011. It is no longer updated.
This is an archive assay for CCRIS tumor inhibitor studies.

Molecules are shown by their SMILES.

Regarding `CC(C)=CCC/C(C)=C/C=C/C(C)=C/C=C/C(C)=C/C=C/C=C(C)/C=C/C=C(C)/C=C/C=C(\C)CCC=C(C)C`, the “tumour outcome (control, treated, inhibition, significance)” value (Carcinogen: 7,12-DIMETHYLBENZ[A]ANTHRACENE, 57-97-6, 2.5 MG/KG ON DAYS ALTERNATE TO CARCINOGEN APPLICATION FOR STUDY DURATION (STUDY DURATION: 14 WK), Route [Inhibitor]: GAVAGE, Species: HAMSTER, Strain/Sex: SYRIAN/MALE, Target Tissue: Type of Lesion: BUCCAL POUCH: SQUAMOUS CELL CARCINOMA, Dose [Carcinogen]: 0.5% IN LIQUID PARAFFIN ON RIGHT BUCCAL POUCH 3X/WK FOR 14 WK, Promoter: NONE USED) is listed as 6/6 (100%), 0/6 (0%), 100%, not calculated; the “tumour outcome (control, treated, inhibition, significance)” value (Carcinogen: DIETHYLNITROSAMINE: 55-18-5, N-METHYL-N-NITROSOUREA, 684-93-5, 1,2-DIMETHYLHYDRAZINE, 540-73-8, Carcinogen: DIETHYLNITROSAMINE: 55-18-5, N-METHYL-N-NITROSOUREA, 684-93-5, 1,2-DIMETHYLHYDRAZINE, 540-73-8, 25 PPM IN DIET FOR 21 WK BEGINNING 2 WK POST CARCINOGEN TREATMENT (STUDY DURATION: 213 D), Route [Inhibitor]: ORAL, Species: MOUSE, Strain/Sex: B6C3F1/FEMALE, Target Tissue: Type of Lesion: LUNG: ADENOMA, Dose [Carcinogen]: 10 MG/KG BW DEN TWICE ON DAYS 1 AND 21, 120 PPM MNU IN DRINKING WATER DURING WKS 4-9, 20 MG/KG BW DMH 2/WK DURING WKS 4-, Dose [Carcinogen]: 10 MG/KG BW DEN TWICE ON DAYS 1 AND 21, 120 PPM MNU IN DRINKING WATER DURING WKS 4-9, 20 MG/KG BW DMH 2/WK DURING WKS 4-) is on record as 6/16 (38%), 3/16 (19%), 50%, not significant; the “tumour outcome (control, treated, inhibition, significance)” value (Carcinogen: DIETHYLNITROSAMINE: 55-18-5, N-METHYL-N-NITROSOUREA, 684-93-5, 1,2-DIMETHYLHYDRAZINE, 540-73-8, Carcinogen: DIETHYLNITROSAMINE: 55-18-5, N-METHYL-N-NITROSOUREA, 684-93-5, 1,2-DIMETHYLHYDRAZINE, 540-73-8, 25 PPM IN DIET FOR 21 WK BEGINNING 2 WK POST CARCINOGEN TREATMENT (STUDY DURATION: 213 D), Route [Inhibitor]: ORAL, Species: MOUSE, Strain/Sex: B6C3F1/MALE, Target Tissue: Type of Lesion: LUNG: ADENOMA, Dose [Carcinogen]: 10 MG/KG BW DEN TWICE ON DAYS 1 AND 21, 120 PPM MNU IN DRINKING WATER DURING WKS 4-9, 20 MG/KG BW DMH 2/WK DURING WKS 4-, Dose [Carcinogen]: 10 MG/KG BW DEN TWICE ON DAYS 1 AND 21, 120 PPM MNU IN DRINKING WATER DURING WKS 4-9, 20 MG/KG BW DMH 2/WK DURING WKS 4-) was 11/16 (69%), 11/15 (69%), 0%, not significant; the “tumour outcome (control, treated, inhibition, significance)” value (Carcinogen: DIETHYLNITROSAMINE: 55-18-5, N-METHYL-N-NITROSOUREA, 684-93-5, 1,2-DIMETHYLHYDRAZINE, 540-73-8, Carcinogen: DIETHYLNITROSAMINE: 55-18-5, N-METHYL-N-NITROSOUREA, 684-93-5, 1,2-DIMETHYLHYDRAZINE, 540-73-8, 25 PPM IN DIET FOR 21 WK BEGINNING 2 WK POST CARCINOGEN TREATMENT (STUDY DURATION: 213 D), Route [Inhibitor]: ORAL, Species: MOUSE, Strain/Sex: B6C3F1/MALE, Target Tissue: Type of Lesion: LUNG: CARCINOMA, Dose [Carcinogen]: 10 MG/KG BW DEN TWICE ON DAYS 1 AND 21, 120 PPM MNU IN DRINKING WATER DURING WKS 4-9, 20 MG/KG BW DMH 2/WK DURING WKS 4-, Dose [Carcinogen]: 10 MG/KG BW DEN TWICE ON DAYS 1 AND 21, 120 PPM MNU IN DRINKING WATER DURING WKS 4-9, 20 MG/KG BW DMH 2/WK DURING WKS 4-) is 1/16 (6%), 2/16 (12%), -98%, not significant; the “tumour outcome (control, treated, inhibition, significance)” value (Carcinogen: DIETHYLNITROSAMINE: 55-18-5, N-METHYL-N-NITROSOUREA, 684-93-5, 1,2-DIMETHYLHYDRAZINE, 540-73-8, Carcinogen: DIETHYLNITROSAMINE: 55-18-5, N-METHYL-N-NITROSOUREA, 684-93-5, 1,2-DIMETHYLHYDRAZINE, 540-73-8, 50 PPM IN DIET FOR 21 WK BEGINNING 2 WK POST CARCINOGEN TREATMENT (STUDY DURATION: 213 D), Route [Inhibitor]: ORAL, Species: MOUSE, Strain/Sex: B6C3F1/FEMALE, Target Tissue: Type of Lesion: LUNG: ADENOMA, Dose [Carcinogen]: 10 MG/KG BW DEN TWICE ON DAYS 1 AND 21, 120 PPM MNU IN DRINKING WATER DURING WKS 4-9, 20 MG/KG BW DMH 2/WK DURING WKS 4-, Dose [Carcinogen]: 10 MG/KG BW DEN TWICE ON DAYS 1 AND 21, 120 PPM MNU IN DRINKING WATER DURING WKS 4-9, 20 MG/KG BW DMH 2/WK DURING WKS 4-) is 6/16 (37%), 8/15 (53%), -42%, not significant; the “tumour outcome (control, treated, inhibition, significance)” value (Carcinogen: DIETHYLNITROSAMINE: 55-18-5, N-METHYL-N-NITROSOUREA, 684-93-5, 1,2-DIMETHYLHYDRAZINE, 540-73-8, Carcinogen: DIETHYLNITROSAMINE: 55-18-5, N-METHYL-N-NITROSOUREA, 684-93-5, 1,2-DIMETHYLHYDRAZINE, 540-73-8, 50 PPM IN DIET FOR 21 WK BEGINNING 2 WK POST CARCINOGEN TREATMENT (STUDY DURATION: 213 D), Route [Inhibitor]: ORAL, Species: MOUSE, Strain/Sex: B6C3F1/MALE, Target Tissue: Type of Lesion: LUNG: ADENOMA, Dose [Carcinogen]: 10 MG/KG BW DEN TWICE ON DAYS 1 AND 21, 120 PPM MNU IN DRINKING WATER DURING WKS 4-9, 20 MG/KG BW DMH 2/WK DURING WKS 4-, Dose [Carcinogen]: 10 MG/KG BW DEN TWICE ON DAYS 1 AND 21, 120 PPM MNU IN DRINKING WATER DURING WKS 4-9, 20 MG/KG BW DMH 2/WK DURING WKS 4-) was 11/16 (69%), 3/16 (19%), 73%, not significant. For the same compound, the “tumour outcome (control, treated, inhibition, significance)” value (Carcinogen: DIETHYLNITROSAMINE: 55-18-5, N-METHYL-N-NITROSOUREA, 684-93-5, 1,2-DIMETHYLHYDRAZINE, 540-73-8, Carcinogen: DIETHYLNITROSAMINE: 55-18-5, N-METHYL-N-NITROSOUREA, 684-93-5, 1,2-DIMETHYLHYDRAZINE, 540-73-8, 50 PPM IN DIET FOR 21 WK BEGINNING 2 WK POST CARCINOGEN TREATMENT (STUDY DURATION: 213 D), Route [Inhibitor]: ORAL, Species: MOUSE, Strain/Sex: B6C3F1/MALE, Target Tissue: Type of Lesion: LUNG: CARCINOMA, Dose [Carcinogen]: 10 MG/KG BW DEN TWICE ON DAYS 1 AND 21, 120 PPM MNU IN DRINKING WATER DURING WKS 4-9, 20 MG/KG BW DMH 2/WK DURING WKS 4-, Dose [Carcinogen]: 10 MG/KG BW DEN TWICE ON DAYS 1 AND 21, 120 PPM MNU IN DRINKING WATER DURING WKS 4-9, 20 MG/KG BW DMH 2/WK DURING WKS 4-) is on record as 1/16 (6%), 0/16 (0%), 100%, not significant and the “tumour outcome (control, treated, inhibition, significance)” value (Carcinogen: DIETHYLNITROSAMINE, 55-18-5, N-METHYL-N-NITROSOUREA, 684-93-5, 1,2-DIMETHYLHYDRAZINE, 306-37-6, Carcinogen: DIETHYLNITROSAMINE, 55-18-5, N-METHYL-N-NITROSOUREA, 684-93-5, 1,2-DIMETHYLHYDRAZINE, 306-37-6, 25 PPM IN DRINKING WATER FOR 21 WK BEGINNING 2 WK POST CARCINOGEN TREATMENT (STUDY DURATION: 32 WK), Route [Inhibitor]: ORAL, Species: MOUSE, Strain/Sex: B6C3F1/FEMALE, Target Tissue: Type of Lesion: LUNG: ADENOMA, Dose [Carcinogen]: 10 MG/KG BW DEN ON DAYS 11 AND 32 OF AGE, 120 PPM MNU IN DRINKING WATER FROM WKS 4 TO 9, 20 MG/KG BW DMH 2/WK FOR 5 WK, Promoter: NONE USED) is on record as 6/16 (38%), 3/16 (19%), 50%, not significant. For the same compound, the outcome is, setting by setting: (Carcinogen: DIETHYLNITROSAMINE: 55-18-5, N-METHYL-N-NITROSOUREA, 684-93-5, 1,2-DIMETHYLHYDRAZINE, 540-73-8, Carcinogen: DIETHYLNITROSAMINE: 55-18-5, N-METHYL-N-NITROSOUREA, 684-93-5, 1,2-DIMETHYLHYDRAZINE, 540-73-8, 25 PPM IN DIET FOR 21 WK BEGINNING 2 WK POST CARCINOGEN TREATMENT (STUDY DURATION: 213 D), Route [Inhibitor]: ORAL, Species: MOUSE, Strain/Sex: B6C3F1/FEMALE, Target Tissue: Type of Lesion: LUNG: CARCINOMA, Dose [Carcinogen]: 10 MG/KG BW DEN TWICE ON DAYS 1 AND 21, 120 PPM MNU IN DRINKING WATER DURING WKS 4-9, 20 MG/KG BW DMH 2/WK DURING WKS 4-, Dose [Carcinogen]: 10 MG/KG BW DEN TWICE ON DAYS 1 AND 21, 120 PPM MNU IN DRINKING WATER DURING WKS 4-9, 20 MG/KG BW DMH 2/WK DURING WKS 4-) 0/16 (0%), 0/16 (0%), 0%, not significant; (Carcinogen: DIETHYLNITROSAMINE: 55-18-5, N-METHYL-N-NITROSOUREA, 684-93-5, 1,2-DIMETHYLHYDRAZINE, 540-73-8, Carcinogen: DIETHYLNITROSAMINE: 55-18-5, N-METHYL-N-NITROSOUREA, 684-93-5, 1,2-DIMETHYLHYDRAZINE, 540-73-8, 50 PPM IN DIET FOR 21 WK BEGINNING 2 WK POST CARCINOGEN TREATMENT (STUDY DURATION: 213 D), Route [Inhibitor]: ORAL, Species: MOUSE, Strain/Sex: B6C3F1/FEMALE, Target Tissue: Type of Lesion: LUNG: CARCINOMA, Dose [Carcinogen]: 10 MG/KG BW DEN TWICE ON DAYS 1 AND 21, 120 PPM MNU IN DRINKING WATER DURING WKS 4-9, 20 MG/KG BW DMH 2/WK DURING WKS 4-, Dose [Carcinogen]: 10 MG/KG BW DEN TWICE ON DAYS 1 AND 21, 120 PPM MNU IN DRINKING WATER DURING WKS 4-9, 20 MG/KG BW DMH 2/WK DURING WKS 4-) 0/16 (0%), 0/15 (0%), 0%, not significant.
